{"source": "patent US20250099486A1", "about": "“WOUND HEALING MEDICAMENT” (The University of Sheffield, priority 2017, published 2025)", "key": {"[1]": {"system": "full-thickness wounds (20 mm)", "assay": "Full-thickness excisional rat wound model", "format": "in vivo, male Sprague-Dawley (SD) rats", "procedure": "For in vivo experiments, 20 mm diameter and 1.2 mm thickness circles of hydrogels were prepared. These samples were sterilized using ethanol (70%) solution, air dried and equilibrated in PBS briefly before placing on the wound. For animal trials, male Sprague-Dawley (SD) rats weighing 140-170 g were used in the study. The animals had free access to food and water and were kept in the animal house facility of the Centre of Excellence in Molecular Biology (CEMB), Lahore. All animals were treated according to procedures approved by the Institutional Animal Ethics Committee at CEMB, Lahore, Pakistan. Animals were anesthetized with ketamine (100 mg/kg body weight) and xylazine (10 mg/kg body weight) and then the fur from the dorsal side was removed with a hair trimmer (Dingling professional hair clipper, RF-608, China). The backs of the rats were completely shaved for adhesive tape fixation and dressing. After shaving, the backs were cleaned with ethanol and then they were transferred onto a clean sterilized table and three circular shaped wounds were created by removing skin at three marked areas with the help of surgical scissors (Noorani Surgical Medical Supplies, Pakistan). Immediately followed the excision process, one of these wounds was covered with sterilized, 2-deoxy-D-ribose-loaded (using 70% ethanol) membrane circles and the other was covered with the same material membranes but without any 2-deoxy-D-ribose. Both the implanted membranes were sutured in position using sterile braided silk sutures (Mersilk, diameter 220 microns). The scaffolds were covered with adhesive plaster (Mepore, Sweden), further dressed with cotton gauze and finally secured with white surgical adhesive tape (Nitto, Japan) to prevent damage from self-grooming. One of these wounds was kept open and covered with dressing only (Mepore, Sweden) to serve as a negative control.\nSurgical dressings were removed after three days of membrane implantation. On days 0, 3, 9, 11, 14 and 17 post-wounding, the wounds were measured and photographed. The wound areas were quantified using Image j software. By the end of experiments, on day 17, rats were euthanized with an overdose of anaesthesia and tissue sections from Implantation sites of normal, sham, control and 2-deoxy-D-ribose-loaded scaffold treated groups were removed. The samples were fixed in 3.7% paraformaldehyde (Sigma-Aldrich, USA) solution for 24 hours at room temperature. They were dehydrated using various concentrations of ethanol and water from 70% to 100% and paraffin blocks were made.\nSections of 6 μm thick were cut from the paraffin embedded samples with a microtome (Leica TP 1020 Automatic Tissue Processor) and placed on Superfrost® plus slides (Menzel-Gläser, Denmark). Conventional Haematoxylin and Eosin (H&E) staining and Gouldner's trichrome staining was performed (Yar et al., International Journal of Polymeric Materials and Polymeric Biomaterials. 2016) before mounting in DPX mounting medium (Fisher Scientific) with a coverslip.\nFor immunohistochemistry, 6 μm sections were processed with a mouse/rabbit specific HRP/DAB (ABC) Detection IHC Kit (Abcam). After rehydration, antigen retrieval and protein blocking steps, the sections were incubated with 3 different monoclonal antibodies (rabbit anti-CD34 (Abcam) 1:1000, mouse anti-CD80 (Santa Cruz) 1:100 and mouse anti-CD163 (AbD Serotec) 1:300) for 2 hours diluted in 1% BSA (Sigma-Aldrich). This was followed by 10 min incubation with a secondary biotinylated goat anti-polyvalent antibody (Abcam Detection IHC Kit). After incubation with an avidin and biotinylated horseradish peroxidase, the target proteins were visualized by incubation in peroxidase substrate and DAB chromogen (Abcam Detection IHC Kit). Samples were then counterstained with haematoxylin, dehydrated, and mounted as per H&E protocol. Controls consisted of samples incubated without primary and secondary antibodies, or incubated only with secondary antibodies. […]"}, "CAM": {"system": "CAM", "assay": "Ex-ovo CAM assay, implantation of E2 and 2dDR releasing PHBV scaffolds", "format": "in vivo, chicken (Gallus domesticus)", "settings": "for mean vessel count: control 23.1 (±1.24)", "procedure": "All CAM experiments were carried out according to the Home Office, UK guidelines. Fertilised chicken eggs (Gallus domesticus) were purchased from Henry Stewart & Co. (MedEggs, Norwich, UK). The eggs were carefully wiped with 20% industrial methylated spirit (IMS) solution using hand paper towels in order to remove dirt and feathers from the shell. The eggs were then incubated at 37.5° C. until embryonic development day (EDD) 3, lying horizontally in an humidified egg incubator (RCOM King SURO, P&T Poultry, Powys, Wales).\nOn EDD3, the upper surface of the eggs were marked with a felt pen. The eggs were held horizontally (with the marked surface on top) and cracked on the edge of a 1000 ml glass beaker and kept close to the bottom surface of petri dishes. The embryos were then transferred gently into sterile petri dishes and kept in a humidified incubator (Binder, Tuttlingen, Germany) at 38° C.\nScaffolds were cut into 5.5 mm diameter circles using a laser cutting machine (Epilog Laser Cutter, Clevedon, UK) and sterilised under UV light for 1 hour prior to implantation. Two circular scaffolds were placed on CAM at EDD8. Images of the scaffolds were acquired using a digital microscope at EDD 12 and EDD14. Microinjection of rhodamine labelled lectin into the circulation was performed, CAMs were removed and fixed in 3.7% formaldehyde solution. Embryos were then sacrificed at the end of EDD14. Angiogenesis was quantified by counting all blood vessels that converged towards the graft.\nHaematoxylin and Eosin (H&E) staining was performed on cell impregnated scaffolds by modifiying a standard protocol. Briefly, fixed samples were embedded in optimal cutting temperature OCT and frozen in liquid nitrogen for 3 minutes. Sections were cut 8-10 μm thick using a cryostat (Leica Biosystems Nussloch, Germany) at −20° C. Sections were then stained with haematoxylin for 90 seconds and eosin for 5 minutes respectively. Finally H&E images were acquired under a light microscope (Motic DM-B1, Xiamen, China). The total number of blood vessels adjacent to the scaffolds were quantified by counting blood vessels in H&E sections [A. Minajeva, M. Kase, M. Saretok, A. Adamson-Raieste, S. Kase, K. Niinepuu, M Vardja, T. Asser, J. Jaal, Impact of Blood Vessel Quantity and Vascular Expression of CD133 and ICAM-1 on Survival of Glioblastoma Patients, Neurosci J. 2017 (2017) 8 pages] Briefly, all discernible blood vessels adjacent to the scaffolds were counted by two independent researchers using two independent microscopes at 10× magnification from the total of six different slides for each group and six different area of interest from each slide."}, "[2]": {"settings": "17 days, loaded CS/collagen scaffold"}}}
{"smiles": "O=CC[C@H](O)[C@H](O)CO", "note": "[2-deoxy-D-ribose]", "values": [{"measurement": "epithelium and hair follicles (Goldner's trichrome)", "setting": "[1]; [2]", "value": "epithelium and hair follicles already formed"}, {"measurement": "wound healing by histology (H&E)", "setting": "[1]; [2]", "value": "essentially complete"}, {"measurement": "vascularisation (staining for CD34 positive cells)", "setting": "[1]; added to chitosan/collagen hydrogel", "value": "increase in vascularisation"}, {"measurement": "attachment of scaffold to the surrounding tissues", "setting": "[1]; day 3, loaded CS/collagen scaffold", "value": "very much attached to the surrounding tissues"}, {"measurement": "wound area", "setting": "[1]; day 9, loaded CS/collagen hydrogel", "value": "around 50%"}, {"measurement": "wound area healed", "setting": "[1]; day 11, loaded CS/collagen hydrogel", "value": "more than 50%"}, {"measurement": "wound closure", "setting": "[1]; day 17, loaded CS/collagen hydrogel", "value": "completely closed"}, {"measurement": "wound healing", "setting": "[1]; loaded in CS/collagen hydrogel", "value": "accelerated"}, {"measurement": "mean vessel count", "setting": "CAM; 250 mg 2dDR loaded PHBV scaffolds", "value": "48.6 (±1.02)"}, {"measurement": "mean vessel count", "setting": "CAM; 500 mg 2dDR loaded PHBV scaffolds", "value": "37.1 (±1.37)"}, {"measurement": "mean number of blood vessels adjacent to the scaffolds (H&E sections)", "setting": "CAM; all concentrations, compared with controls and CAM only groups", "value": "significantly increased"}, {"measurement": "number of discernible blood vessels growing towards the scaffolds in comparison with plain PHBV scaffolds", "setting": "CAM; all groups of releasing PHBV scaffolds", "value": "at least doubled"}]}
